Where two headings read alike, the source gives them in different places.
Assays:
[1] = biological target: recombinant human mutant KRas G12V (SOS1-mediated nucleotide exchange) (Homo sapiens (Human), UniProt P01116, G12V); assay: KRAS biochemical assay, BODIPY-GDP exchange TR-FRET (G12V-GDP HTRF)
[2] = system: SW620 cells; assay: SW620 3D proliferation assay (CellTiter-Glo); type: cell-based; details: SW620, 3D culture, 7 days, read-out: SW620 CTG IC50
Method: (§1) SW620 and HPAC 3D proliferation assays.
(§2) Compound potencies were assessed in proliferation assays conducted with SW620 and HPAC cell lines grown in 3D cultures. Cells were seeded into 96- or 384-well ultra-low attachment plates at 3000 or 1000 cells/well, respectively, in culture medium (RPMI-1640, 10% FBS, 2 mM L-glutamine). The plated cells were centrifuged briefly, allowed to rest for 30 minutes under ambient conditions, and cultured overnight at 37° C./5% CO2 to initiate the formation of spheroids. Compound dilutions were prepared across a range of concentrations in DMSO and added to the appropriate wells of the assay plates with a 333-fold dilution into the culture medium. The plates were further incubated for 7 days. The quantity of viable cells was assessed using CellTiter-Glo 3D Cell Viability Assay (Promega). The detection reagent penetrates the spheroids and lyses the cells. The released ATP that was detected with luciferase and a luciferase substrate to generate a luminescent readout. […] The data points were fit to a 4-parameter logistic equation to determine IC50 values.

[3] = biological target: recombinant human KRAS wild type (SOS1-mediated nucleotide exchange) (Homo sapiens (Human), UniProt P01116); assay: KRAS biochemical assay, BODIPY-GDP exchange TR-FRET (WT-GDP HTRF)
Method: [Worded in the source for another variant; this variant is reported under the same test.] KRAS Biochemical Assay—BODIPY-GDP Exchange TR-FRET.
Biochemical compound potencies were assessed by evaluating inhibition of SOS1-mediated nucleotide exchange in KRAS G12D. The SOS1-promoted exchange of fluorescently-labeled GDP (BOPIDY-GDP) was monitored by time-resolved fluorescence resonance energy transfer (TR-FRET). Compounds solubilized in DMSO were dispensed as concentration series into 384-well white assay plates. […] The reaction was initiated with the addition of 5 μL of 3 nM recombinant human SOS1 and 300 nM BODIPY-GDP in assay buffer. After a 60-minute incubation, the fluorescence was measured with excitation at 337 nm and emission at 490 and 520 nm. The TR-FRET ratio was determined as the fluorescence at 520 nm divided by the fluorescence at 490 nm multiplied by 10,000. […] The normalized TR-FRET results were plotted against compound concentration, and the data fit to a 4-parameter Hill equation to determine the IC50 values.

[4] = system: SW620 PERK; assay: SW620 PERK assay; type: cell-based
[5] = system: H1975 cells; assay: H1975 CTG proliferation assay; type: cell-based
[6] = system: HPAC cells; assay: HPAC 3D proliferation assay (CellTiter-Glo); type: cell-based; details: 3D culture, 7 days, read-out: HPAC CTG IC50
Method: as §1, §2

[7] = Homo sapiens, SW-620, SW620, PERK
[8] = Homo sapiens, NCI-H1975, H1975, CTG

Chain of recombinant human mutant KRas G12V (SOS1-mediated nucleotide exchange) (P01116-2 other isoform, or with tags, fused parts or gaps G12V): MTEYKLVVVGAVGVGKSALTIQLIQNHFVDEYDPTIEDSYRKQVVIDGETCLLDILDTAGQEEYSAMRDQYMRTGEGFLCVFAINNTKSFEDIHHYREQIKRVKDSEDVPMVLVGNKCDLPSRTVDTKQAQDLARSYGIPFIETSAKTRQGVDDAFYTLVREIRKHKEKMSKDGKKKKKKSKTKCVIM
Chain of recombinant human KRAS wild type (SOS1-mediated nucleotide exchange) (P01116-2 other isoform, or with tags, fused parts or gaps): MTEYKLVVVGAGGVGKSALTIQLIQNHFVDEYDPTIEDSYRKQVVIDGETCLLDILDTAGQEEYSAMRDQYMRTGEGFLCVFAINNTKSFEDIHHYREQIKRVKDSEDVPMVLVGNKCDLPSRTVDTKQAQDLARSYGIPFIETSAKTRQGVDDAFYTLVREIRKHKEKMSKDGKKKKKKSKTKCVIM

| IC50 [1] | IC50 ([2]; Homo sapiens, SW-620, 168 h) | IC50 [3] | IC50 [4, 7] | IC50 [5, 8] | IC50 [2] | IC50 ([4]; SW620, PERK) | IC50 ([5]; H1975, CTG) | Compound | IC50 ([6]; Homo sapiens, 168 h) | IC50 [6] |
| --- | --- | --- | --- | --- | --- | --- | --- | --- | --- | --- |
| 1.9 nM |  | 2.93 nM |  |  | 6.87 nM | 33.1 nM | 180 nM | Cc1cc(N)c(Cl)c(-c2nc3c4c(nc(OC[C@@]56CCCN5C[C@H](F)C6)nc4c2F)N([C@H](C)c2cccnc2N)CCO3)c1C(F)(F)F (single isomer, unassigned) [Example 21a] |  | 103 nM |
| 4.8 nM | 74.2 nM | 12.3 nM | 105 nM | 426 nM |  |  |  | Cc1c(F)c(N)c(F)c(-c2nc3c4c(nc(OC[C@@]56CCCN5C[C@H](F)C6)nc4c2Cl)N([C@H](C)c2cccnc2N)CCO3)c1C(F)(F)F (single isomer, unassigned) [Example 629b] | 682 nM |  |
| 0.08 nM | 1.15 nM | 0.104 nM | 0.59 nM | 9.54 nM |  |  |  | Cc1cc(N)cc(-c2nc3c4c(nc(OC[C@@]56CCCN5C[C@H](F)C6)nc4c2F)N([C@H](C)c2cccnc2N)CCO3)c1C(F)(F)F [Example 3, 3-((R)-1-(5-(5-amino-3-methyl-2-(trifluoromethyl)phenyl)-4-fluoro-2-(((2R,7aS)-2-fluorotetrahydro-1H-pyrrolizin-7a(5H)-yl)methoxy)-8,9-dihydro-10H-7-oxa-1,3,6,10-tetraazacyclohepta[de]naphthalen-10-yl)ethyl)pyridin-2-amine] | 8.79 nM |  |
| 0.09 nM | 1.64 nM | 0.15 nM | 0.66 nM | 2.59 nM |  |  |  | C#Cc1cccc2cc(N)cc(-c3nc4c5c(nc(OC[C@@]67CCCN6C[C@H](F)C7)nc5c3F)N([C@H](C)c3nccnc3N)CCO4)c12 [Example 29, 3-((R)-1-(5-(3-Amino-8-ethynyinaphthalen-1-yl)-4-fluoro-2-(((2R,7aS)-2-fluorotetrahydro-1H-pyrrolizin-7a(5H)-yl)methoxy)-8,9-dihydro-10H-7-oxa-1,3,6,10-tetraazacyclohepta[de]naphthalen-10-yl)ethyl)pyrazin-2-amine] | 4.51 nM |  |
| 2.2 nM | 1950 nM | 22.6 nM | 629 nM | 296 nM |  |  |  | C[C@H](c1cccnc1N)N1CCOc2nc(-c3cc(N)nc4ccccc34)c(F)c3nc(OC[C@@]45CCCN4C[C@H](F)C5)nc1c23 [Example 602, 4-(10-((R)-1-(2-aminopyridin-3-yl)ethyl)-4-fluoro-2-(((2R,7aS)-2-fluorotetrahydro-1H-pyrrolizin-7a(5H)-yl)methoxy)-9,10-dihydro-8H-7-oxa-1,3,6,10-tetraazacyclohepta[de]naphthalen-5-yl)quinolin-2-amine] | > 2000 nM |  |
| 0.14 nM | 11.3 nM | 0.19 nM | 11.9 nM | 4 nM |  |  |  | Cc1nc(N)cc(-c2nc3c4c(nc(OC[C@@]56CCN5C[C@]5(CC5(F)F)C6)nc4c2F)N([C@H](C)c2cccnc2N)CCO3)c1C(F)(F)F [Example 605] | 94 nM |  |
| 0.2 nM | 1520 nM | 0.808 nM | 855 nM | 374 nM |  |  |  | Cc1nc(N)cc(-c2nc3c4c(nc(OC[C@@]56CCN5C[C@]5(CC5(F)F)C6)nc4c2F)N([C@H](C)c2cncnc2N)CCO3)c1C(F)(F)F [Example 606] | > 2000 nM |  |
| 0.52 nM | 246 nM | 3.38 nM | 45.1 nM | 243 nM |  |  |  | C[C@H](c1cccnc1N)N1CCOc2nc(-c3cc(N)ncc3C(F)(F)F)c(F)c3nc(OC[C@@]45CCCN4C[C@H](F)C5)nc1c23 [Example 608, 4-(10-((R)-1-(2-aminopyridin-3-yl)ethyl)-4-fluoro-2-(((2R,7aS)-2-fluorotetrahydro-1H-pyrrolizin-7a(5H)-yl)methoxy)-9,10-dihydro-8H-7-oxa-1,3,6,10-tetraazacyclohepta[de]naphthalen-5-yl)-5-(trifluoromethyl)pyridin-2-amine] | 917 nM |  |

More lines, now with the values behind:

| Compound | IC50 [1] | IC50 ([2]; Homo sapiens, SW-620, 168 h) | IC50 [3] | IC50 [4, 7] | IC50 [5, 8] | IC50 [2] | IC50 ([4]; SW620, PERK) | IC50 ([5]; H1975, CTG) | IC50 ([6]; Homo sapiens, 168 h) | IC50 [6] |
| --- | --- | --- | --- | --- | --- | --- | --- | --- | --- | --- |
| C[C@H](c1cccnc1N)N1CCOc2nc(-c3c(C(F)(F)F)ccc(N)c3Cl)c(F)c3nc(OC[C@@]45CCCN4C[C@H](F)C5)nc1c23 (atropisomer, axis not shown; (aS)) [Example 622a, 3-((R)-1-((R)-5-(3-amino-2-chloro-6-(trifluoromethyl)phenyl)-4-fluoro-2-(((2R,7aS)-2-fluorotetrahydro-1H-pyrrolizin-7a(5H)-yl)methoxy)-8,9-dihydro-10H-7-oxa-1,3,6,10-tetraazacyclohepta[de]naphthalen-10-yl)ethyl)pyridin-2-amine] | 0.19 nM | 5.1 nM | 0.572 nM | 3.2 nM | 766 nM |  |  |  | 39.6 nM |  |
| C[C@H](c1cccnc1N)N1CCOc2nc(-c3c(C(F)(F)F)ccc(N)c3Cl)c(F)c3nc(OC[C@@]45CCCN4C[C@H](F)C5)nc1c23 (single isomer, unassigned) [Example 622b] | 2.3 nM | 22.8 nM | 5.5 nM | 29.6 nM | 2610 nM |  |  |  | 123 nM |  |
| C#Cc1cccc2cncc(-c3nc4c5c(nc(OC[C@@]67CCCN6C[C@H](F)C7)nc5c3F)N([C@H](C)c3cccnc3N)CCO4)c12 [Example 18, 3-((R)-1-(5-(5-ethynylisoquinolin-4-yl)-4-fluoro-2-(((2R,7aS)-2-fluorotetrahydro-1H-pyrrolizin-7a(5H)-yl)methoxy)-8,9-dihydro-10H-7-oxa-1,3,6,10-tetraazacyclohepta[de]naphthalen-10-yl)ethyl)pyridin-2-amine] | 0.24 nM | 13 nM | 0.33 nM | 5.44 nM | 5.54 nM |  |  |  | 56.1 nM |  |
| C#Cc1cccc2nc(N)cc(-c3nc4c5c(nc(OC[C@@]67CCCN6C[C@H](F)C7)nc5c3F)N([C@H](C)c3cccnc3N)CCO4)c12 [Example 30, 4-(10-((R)-1-(2-aminopyridin-3-yl)ethyl)-4-fluoro-2-(((2R,7aS)-2-fluorotetrahydro-1H-pyrrolizin-7a(5H)-yl)methoxy)-9,10-dihydro-8H-7-oxa-1,3,6,10-tetraazacyclohepta[de]naphthalen-5-yl)-5-ethynylquinolin-2-amine] | 0.06 nM | 2.67 nM | 0.114 nM | 2.65 nM | 2.59 nM |  |  |  | 15.8 nM |  |
| Cc1c(F)c(N)cc(-c2nc3c4c(nc(OC[C@@]56CCCN5C[C@]5(CC5(F)F)C6)nc4c2F)N([C@H](C)c2cccnc2N)CCO3)c1C(F)(F)F [Example 31, 3-((R)-1-(5-(5-amino-4-fluoro-3-methyl-2-(trifluoromethyl)phenyl)-2-(((1R,7a'S)-2,2-difluorodihydro-1′H,3′H-spiro[cyclopropane-1,2′-pyrrolizin]-7a′(5′H)-yl)methoxy)-4-fluoro-8,9-dihydro-10H-7-oxa-1,3,6,10-tetraazacyclohepta[de]naphthalen-10-yl)ethyl)pyridin-2-amine] | 0.27 nM | 16.2 nM | 0.419 nM | 26.8 nM | 17.9 nM |  |  |  | 156 nM |  |
| Cc1cc(N)nc(-c2nc3c4c(nc(OC[C@@]56CCCN5C[C@H](F)C6)nc4c2F)N(C(C)c2scnc2N)CCO3)c1C(F)(F)F (stereo partly drawn) [Example 607, 5-(1-(5-(6-amino-4-methyl-3-(trifluoromethyl)pyridin-2-yl)-4-fluoro-2-(((2R,7aS)-2-fluorotetrahydro-1H-pyrrolizin-7a(5H)-yl)methoxy)-8,9-dihydro-10H-7-oxa-1,3,6,10-tetraazacyclohepta[de]naphthalen-10-yl)ethyl)thiazol-4-amine] | 0.27 nM | 90.7 nM | 0.69 nM | 17.8 nM | 35.5 nM |  |  |  | 302 nM |  |
